Measurements reported in patent US20250101102A1, “BISPECIFIC ANTIBODY AGAINST CD3 AND CD20 IN COMBINATION THERAPY FOR TREATING DIFFUSE LARGE B-CELL LYMPHOMA” (GENMAB A/S, priority 2022, published 2025).
Where two headings read alike, the source gives them in different places.

Experiments:
T cells = assay: T cell viability after pretreatment with CHP components; type: cell-based
[1] = tested on: primary DLBCL and follicular lymphoma patient biopsies; details: cited from earlier work
[2] = tested on: CD20-expressing Raji-luc tumor cells; details: NOD-SCID mice injected with Raji-luc tumor cells and PBMCs; even in the presence of an excess of IgG1-RTX-FEAR; cited from earlier work
[3] = tested on: CD20-expressing Daudi cells; details: 333 ng/ml DuoBody-CD3xCD20, 4 donors
Description: Briefly, T cells were pre-incubated with cyclophosphamide, doxorubicin, or prednisone for 16 hours and subsequently used in a cytotoxicity assay with epcoritamab and CD20-expressing Daudi cells as target cells (E: T ratio 2:1), in which cyclophosphamide, doxorubicin, or prednisone was added in the same concentration as during pre-incubation, respectively. Data are presented as percent viable target cells (CD4-CD8-CD22+), normalized to medium control (no Ab, no CHP component).

[4] = tested on: relapsed or refractory (R/R) B-NHL; highly refractory large B-cell lymphoma; details: cited from earlier work
[5] = T cells pre-incubated for 16 hours
[6] = highly refractory large B-cell lymphoma, n=157

C[C@]12C=CC(=O)C=C1CC[C@@H]1[C@@H]2C(=O)C[C@@]2(C)[C@H]1CC[C@]2(O)C(=O)CO [prednisone, 17,21-dihydroxypregna-1,4-diene-3,11,20-trione]
T cell viability after pretreatment (T cells; [5]): did not impact T cell viability

O=P1(N(CCCl)CCCl)NCCCO1 (centres unmarked) [cyclophosphamide, 2H-1,3,2-Oxazaphosphorin-2-amine, N,N-bis(2-chloroethyl)tetrahydro-, 2-oxide]
T cell viability after pretreatment (T cells): did not impact T cell viability

epcoritamab: IgG1 bispecific CD3×CD20 antibody; heavy and light chain pairs SEQ ID NOs: 24/25 (CD3ε arm) and 26/27 (CD20 arm); CAS 2134641-34-0
T-cell-mediated cytotoxicity [1]: induced T-cell-mediated cytotoxicity | tumor growth in the xenograft model [2]: effectively reduce tumor growth | viable B cells left after incubation ([3]; T cells pretreated with cyclophosphamide, FIG. 1A right panel): very low percentages of viable B cells | viable B cells left after incubation ([3]; T cells pretreated with prednisone, FIG. 1C right panel): very low percentages of viable B cells | complete response (CR) rate [4, 6]: 39% | median duration of response (DOR) [4, 6]: 12 months | overall response rate (ORR) [4, 6]: 63% | safety profile ([4]; in vivo): manageable safety profile

COc1cccc2c1C(=O)c1c(O)c3c(c(O)c1C2=O)C[C@@](O)(C(=O)CO)C[C@@H]3O[C@H]1C[C@H](N)[C@H](O)[C@H](C)O1 [doxorubicin]
T cell viability after pretreatment (T cells; [5]): reduction in T cell viability
